Several values for one entry are separate records, joined by “and”; a condition that tells them apart may be missing. Equal values may be shown once. Read-outs that look alike come from different tables or passages of the source.
Experiment: Pharmacokinetics in humans, MRTX1133 formulation, oral, single and multiple doses
Type: in vivo
Conditions: for AUC0-12 Accumulation Ratio, Geo Mean / Cmax Accumulation Ratio, Geo Mean / Peak to Trough Ratio, Geo Mean: geometric mean of subjects
Protocol: The pharmacokinetics [PK] of the MRTX1133 formulation after oral administration has been evaluated in 25 subjects across 3 escalating dose frequencies under fasting conditions (200 mg twice daily [BID], 400 mg BID, and 800 mg BID), as well as evaluation of 400 mg BID when administered with a low-fat meal (i.e., under fed conditions). The mean (+standard deviation) single-dose and multiple-dose pharmacokinetic profiles of the evaluated doses are presented in FIG. 9 and FIG. 10, respectively. Individual single- and multiple-dose PK profiles can be found in FIG. 11. For all figures, the X-axis represents nominal time of sample collection (hours [h]) and the Y-axis represents plasma concentration (ng/mL). Table 10 lists PK data following the oral administration of a single dose and multiple doses of MRTX1133 formulation by dose level and subject.

[1] = multiple oral doses of 200 mg BID, fasted
[2] = multiple oral doses of 200 mg BID, fasted, individual subjects
[3] = multiple oral doses of 400 mg BID with a low-fat meal
[4] = multiple oral doses of 400 mg BID with a low-fat meal, individual subjects
[5] = multiple oral doses of 400 mg BID, fasted
[6] = multiple oral doses of 400 mg BID, fasted, individual subjects
[7] = multiple oral doses of 800 mg BID, fasted, Geo Mean of subjects

## C#Cc1c(F)ccc2cc(O)cc(-c3ncc4c(N5C[C@H]6CC[C@@H](C5)N6)nc(OC[C@@]56CCCN5C[C@H](F)C6)nc4c3F)c12 [MRTX1133, 4-(4-((1R,5S)-3,8-diazabicyclo[3.2.1]octan-3-yl)-8-fluoro-2-(((2R,7aS)-2-fluorohexahydro-1Hpyrrolizin-7a-yl)methoxy)pyrido[4,3-d]pyrimidin-7-yl)-5-ethynyl-6-fluoronaphthalen-2-ol]
human, plasma, po, 800 mg, single oral dose of 800 mg, fasted, 0 h, individual subjects, read-out: Plasma concentration
  concentration at 0 h: 0 ng/mL
human, plasma, po, 800 mg, single oral dose of 800 mg, fasted, 0.5 h, mean of subjects, read-out: Plasma concentration, Mean
  concentration at 0.5 h: 235 ng/mL
human, plasma, po, 800 mg, single oral dose of 800 mg, fasted, 1 h, mean of subjects, read-out: Plasma concentration, Mean
  concentration at 1 h: 286 ng/mL
human, plasma, po, 800 mg, single oral dose of 800 mg, fasted, 1.5 h, mean of subjects, read-out: Plasma concentration, Mean
  concentration at 1.5 h: 151 ng/mL
human, plasma, po, 800 mg, single oral dose of 800 mg, fasted, 2 h, mean of subjects, read-out: Plasma concentration, Mean
  concentration at 2 h: 117 ng/mL
human, plasma, po, 800 mg, single oral dose of 800 mg, fasted, 4 h, mean of subjects, read-out: Plasma concentration, Mean
  concentration at 4 h: 67.6 ng/mL
human, plasma, po, 800 mg, single oral dose of 800 mg, fasted, 6 h, mean of subjects, read-out: Plasma concentration, Mean
  concentration at 6 h: 57.9 ng/mL
human, plasma, po, 800 mg, single oral dose of 800 mg, fasted, 8 h, mean of subjects, read-out: Plasma concentration, Mean
  concentration at 8 h: 49.7 ng/mL
human, plasma, po, 800 mg, single oral dose of 800 mg, fasted, 12 h, mean of subjects, read-out: Plasma concentration, Mean
  concentration at 12 h: 12.6 ng/mL
human, plasma, po, 800 mg, single oral dose of 800 mg, fasted, 24 h, mean of subjects, read-out: Plasma concentration, Mean
  concentration at 24 h: 25.5 ng/mL
human, plasma, po, 800 mg, single oral dose of 800 mg, fasted, Geo Mean of subjects, read-out: AUC0-12
  AUC(0-t): 440 ng·h/mL
human, plasma, po, 800 mg, single oral dose of 800 mg, fasted, Geo Mean of subjects, read-out: AUC0-inf
  AUC0-inf: 543 ng·h/mL
human, plasma, po, 800 mg, single oral dose of 800 mg, fasted, Geo Mean of subjects, read-out: AUC0-last
  AUC(0-t): 463 ng·h/mL
human, plasma, po, 800 mg, single oral dose of 800 mg, fasted, Geo Mean of subjects, read-out: Cmax
  Cmax: 123 ng/mL
human, plasma, po, 800 mg, single oral dose of 800 mg, fasted, Median of subjects, read-out: Tmax
  Tmax: 1.2 h
[1]
  AUC0-12 Accumulation Ratio, Geo Mean: 0.9
  Cmax Accumulation Ratio, Geo Mean: 0.6
  Peak to Trough Ratio, Geo Mean: 12.3
[2]
  AUC0-12: 181 ng·h/mL and 84.0 ng·h/mL and 42.9 ng·h/mL and 115 ng·h/mL
  AUC0-12 Accumulation Ratio: 1.30 and 0.94 and 0.44 and 1.16
  AUC0-last: 181 ng·h/mL and 84.0 ng·h/mL and 42.9 ng·h/mL and 115 ng·h/mL and 31.9 ng·h/mL
  Cmax: 85.0 ng/mL and 15.0 ng/mL and 49.4 ng/mL and 56.2 ng/mL and 17.1 ng/mL
  Cmax Accumulation Ratio: 0.73 and 0.71 and 0.85 and 1.26 and 0.14
  Peak to Trough Ratio: 52.1 and 2.75 and 78.2 and 24.9 and 1.02
  Tlast: 12 h (4×) and 2.0 h
  Tmax: 0.5 h
[3]
  AUC0-12 Accumulation Ratio, Geo Mean: 1.7
  Cmax Accumulation Ratio, Geo Mean: 1.9
  Peak to Trough Ratio, Geo Mean: 12.9
[4]
  AUC0-12: 1,475 ng · h/mL and 457 ng · h/mL and 107 ng · h/mL and 127 ng · h/mL
  AUC0-12 Accumulation Ratio: 2.61 and 1.50 and 2.52 and 0.75
  AUC0-last: 1,475 ng · h/mL and 457 ng · h/mL and 107 ng · h/mL and 127 ng · h/mL
  Cmax: 390 ng/mL and 250 ng/mL and 48.2 ng/mL and 23.0 ng/mL
  Cmax Accumulation Ratio: 4.69 and 2.66 and 1.71 and 0.63
  Peak to Trough Ratio: 7.25 and 84.7 and 10.6 and 4.27
  Tlast: 12 h
Multiple oral doses of 400 mg BID, fasted, 0.5 h, individual subjects
  Plasma concentration: 79.1 ng/mL and 58.5 ng/mL and 82.8 ng/mL and 83.0 ng/mL and 29.7 ng/mL and 23.6 ng/mL and 152 ng/mL
Multiple oral doses of 400 mg BID, fasted, 1 h, individual subjects
  Plasma concentration: 129 ng/mL and 31.5 ng/mL and 61.2 ng/mL and 38.4 ng/mL and 11.5 ng/mL and 44.7 ng/mL and 285 ng/mL
Multiple oral doses of 400 mg BID, fasted, 1.5 h, individual subjects
  Plasma concentration: 90.2 ng/mL and 28.5 ng/mL and 38.9 ng/mL and 32.3 ng/mL and 15.2 ng/mL and 38.0 ng/mL and 209 ng/mL
Multiple oral doses of 400 mg BID, fasted, 2 h, individual subjects
  Plasma concentration: 99.0 ng/mL and 27.2 ng/mL and 55.6 ng/mL and 23.4 ng/mL and 21.1 ng/mL and 30.0 ng/mL and 83.1 ng/mL
Multiple oral doses of 400 mg BID, fasted, 4 h, individual subjects
  Plasma concentration: 82.8 ng/mL and 11.0 ng/mL and 115 ng/mL and 23.8 ng/mL and 5.34 ng/mL and 233 ng/mL and 70.5 ng/mL
Multiple oral doses of 400 mg BID, fasted, 6 h, individual subjects
  Plasma concentration: 189 ng/mL and 2.51 ng/mL and 45.3 ng/mL and 10.7 ng/mL and 4.38 ng/mL and 148 ng/mL and 43.8 ng/mL
Multiple oral doses of 400 mg BID, fasted, 8 h, individual subjects
  Plasma concentration: 88.9 ng/mL and 2.27 ng/mL and 33.3 ng/mL and 8.36 ng/mL and 3.68 ng/mL and 110 ng/mL and 35.5 ng/mL
Multiple oral doses of 400 mg BID, fasted, 12 h, individual subjects
  Plasma concentration: 76.9 ng/mL and 2.76 ng/mL and 31.2 ng/mL and 6.42 ng/mL and 3.71 ng/mL and 42.1 ng/mL and 31.3 ng/mL
[5]
  AUC0-12 Accumulation Ratio, Geo Mean: 1.6
  Cmax Accumulation Ratio, Geo Mean: 1.3
  Peak to Trough Ratio, Geo Mean: 11.1
[6]
  AUC0-12: 1,237 ng · h/mL and 128 ng · h/mL and 640 ng · h/mL and 211 ng · h/mL and 89.4 ng · h/mL and 1,239 ng · h/mL and 821 ng · h/mL
  AUC0-12 Accumulation Ratio: 3.02 and 1.35 and 5.02 and 1.40 and 0.76 and 0.73 and 1.41
  AUC0-last: 1,237 ng · h/mL and 128 ng · h/mL and 640 ng · h/mL and 211 ng · h/mL and 89.4 ng · h/mL and 1,239 ng · h/mL and 821 ng · h/mL
  Cmax: 189 ng/mL and 58.5 ng/mL and 115 ng/mL and 83.0 ng/mL and 29.7 ng/mL and 233 ng/mL and 285 ng/mL
  Cmax Accumulation Ratio: 3.04 and 0.94 and 1.73 and 1.17 and 0.80 and 0.83 and 1.52
  Peak to Trough Ratio: 3.30 and 101 and 3.47 and 9.10 and 6.32 and 23.7 and 13.4
  Tlast: 12 h
  Tmax: 6.0 h and 0.5 h (3×)
[7]
  AUC0-12 Accumulation Ratio: 1.0
  Cmax Accumulation Ratio: 0.8
  Peak to Trough Ratio: 9.6

— patent US20250120981A1, “MRTX1133 PHARMACEUTICAL COMPOSITIONS” (MIRATI THERAPEUTICS, INC., priority 2023, published 2025)
